For nine compounds, IC50 and Selectivity results are on record in patent EP4786487A1, “PEPTIDE” (Peptidream Inc, priority 2023, dated 2025).

Read-outs that look alike come from different tables or passages of the source. Starred links: 1 amine or outer side, 2 acyl side, 3 side chain; linkers in the order of their positions; H or OH if unused. Positions of bridges follow the written chain, without caps; N, C: chain ends. Non-standard residues stand in square brackets, D forms with d. Residues, ends and D or L forms follow the SMILES beside them. *: point of attachment. X6 = CS(=O)(=O)c1ccc(-c2ccc(C[C@H](N[*:1])C(=O)[*:2])cc2)cc1; Phe(3-OCH2COOH) = N[C@@H](Cc1cccc(OCC(=O)O)c1)C(=O)O; Piperidine(4-CH2CH2CONH2) = NC(=O)CCC1CCN(*)CC1; Phe(4-COOH) = N[C@@H](Cc1ccc(C(=O)O)cc1)C(=O)O; Trp(6-aza) = N[C@@H](Cc1c[nH]c2cnccc12)C(=O)O; Piperazinyl(4-CH2COOH) = O=C(O)CN1CCN(*)CC1; Piperidinyl(4-CH2COOH) = O=C(O)CC1CCN(*)CC1; Gly(decyl) = CCCCCCCCCC[C@H](N)C(=O)O; X1 = CCCCCCC[C@H](N[*:1])C(=O)[*:2]; NMeCha = CN[C@@H](CC1CCCCC1)C(=O)O; NMeF = CN[C@@H](Cc1ccccc1)C(=O)O; NMeE = CN[C@@H](CCC(=O)O)C(=O)O; NMeA = CN[C@@H](C)C(=O)O; X9 = NC(=O)CC1CCN(*)CC1; NEtG = CCNCC(=O)O; Sar = CNCC(=O)O

Format in all cases: cell-based
For test [1], the target named is T1, GDF-11 (Homo sapiens, UniProt O95390).
T1 construct: purchased R&D systems 1958-GD-G8/CF
T1 sequence (O95390 299-407): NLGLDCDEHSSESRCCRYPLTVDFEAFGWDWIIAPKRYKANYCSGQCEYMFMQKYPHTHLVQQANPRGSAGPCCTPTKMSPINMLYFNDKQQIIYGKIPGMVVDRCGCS
As to the kind of experiment: Reporter gene assay for myostatin signaling in HepG2 cell line, Evaluation Procedure (1), GDF-11 inhibition. To be noted: read-out: IC50 (Luciferase) GDF-11 HepG2. The procedure, abridged: (§1)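 HepG2 cells transfected with pGL3(CAGA)12-luciferase reporter, serum-starved in 0.1% BSA medium, then stimulated with myostatin or GDF-11 plus 4-fold peptide dilutions (0.006–100 nmol/L for myostatin, 0.12–2000 nmol/L for GDF-11) for 20–24 h at 37 °C. Luminescence read with One-Glo; IC50 calculated.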
On the technique in general: A reporter such as luciferase makes a cellular process visible.

The test system of test [2] is Myostatin. As to the kind of experiment: Reporter gene assay for myostatin signaling in HepG2 cell line, Evaluation Procedure (1), myostatin inhibition. To be noted: GDF-11 IC50 versus Myostatin IC50. The procedure, abridged:
as §1

Test [3] concerns the target T2, Myostatin (Homo sapiens, UniProt O14793).
T2 construct: active myostatin (also called mature myostatin) is a homodimer consisting of two C-terminal growth factor domains; purchased R&D systems 788-G8/CF
T2 sequence (O14793 267-375): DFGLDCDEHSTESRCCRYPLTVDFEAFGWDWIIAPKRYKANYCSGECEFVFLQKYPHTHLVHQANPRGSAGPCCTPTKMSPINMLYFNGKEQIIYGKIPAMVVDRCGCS
Described as above. To be noted: read-out: IC50 (Luciferase) Myostatin HepG2. In short, it runs like this: as §1

For `CCCCCCC[C@@H]1NC(=O)[C@H](Cc2ccccc2)N(C)C(=O)[C@H](CCCNC(=N)N)NC(=O)[C@H](Cc2ccc(C(=O)O)cc2)NC(=O)[C@H](Cc2cccc(OCC(=O)O)c2)NC(=O)CN(C)C(=O)[C@H]([C@@H](C)CC)NC(=O)[C@H](CC2CCCCC2)N(C)C(=O)[C@H](Cc2ccc(O)cc2)NC(=O)[C@H](Cc2c[nH]c3ccccc23)NC(=O)[C@@H](CCC(=O)O)NC(=O)[C@H](C)NC(=O)CSC[C@H](C(=O)N2CCN(CC(=O)O)CC2)NC(=O)[C@H](Cc2ccccc2)N(C)C(=O)[C@H](C)N(C)C1=O` [Myostatin_99_v255] ({CH2CO}-A[dE]WY[NMeCha]I[Sar][Phe(3-OCH2COOH)][Phe(4-COOH)]R[NMeF][X1][NMeA][NMeF][dC]-{Piperazinyl(4-CH2COOH)}; thioether N-15), the IC50 in test [1] (Method A: GDF-11 10 ng/mL) worked out at 191 nM; in test [3] (Method A: Myostatin 10 ng/mL), 1.6 nM. Further, the Selectivity in test [2] (Method A) amounted to 119.

As to `CCCCCCCCCC[C@@H]1NC(=O)[C@H](Cc2ccccc2)N(C)C(=O)[C@H](CCCNC(=N)N)NC(=O)[C@H](Cc2ccc(C(=O)O)cc2)NC(=O)[C@H](Cc2cccc(OCC(=O)O)c2)NC(=O)[C@H]2CCCN2C(=O)[C@H]([C@@H](C)CC)NC(=O)[C@H](Cc2ccccc2)N(C)C(=O)[C@H](Cc2ccc(O)cc2)NC(=O)[C@H](Cc2c[nH]c3ccccc23)NC(=O)[C@H](C)NC(=O)[C@H](C)NC(=O)CSC[C@H](C(=O)N2CCN(CC(=O)O)CC2)NC(=O)[C@H](Cc2ccccc2)N(C)C(=O)[C@H](CCC(=O)O)N(C)C1=O` [Myostatin_99_v309] ({CH2CO}-AAWY[NMeF]I[dP][Phe(3-OCH2COOH)][Phe(4-COOH)]R[NMeF][Gly(decyl)][NMeE][NMeF][dC]-{Piperazinyl(4-CH2COOH)}; thioether N-15), the values for the 50% inhibitory concentration (IC50) in test [1] (Method B: GDF-11 1 ng/mL) and in test [3] (Method B: Myostatin 1 ng/mL) were 25 nM and 0.09 nM, respectively. In test [2] (Method B), the Selectivity was 287.

Regarding `CCCCCCC[C@@H]1NC(=O)[C@H](Cc2ccccc2)N(C)C(=O)[C@H](CCCNC(=N)N)NC(=O)[C@H](Cc2ccc(C(=O)O)cc2)NC(=O)[C@H](Cc2cccc(OCC(=O)O)c2)NC(=O)CN(C)C(=O)[C@H]([C@@H](C)CC)NC(=O)[C@H](Cc2ccccc2)N(C)C(=O)[C@H](Cc2ccc(O)cc2)NC(=O)[C@H](Cc2c[nH]c3ccccc23)NC(=O)[C@H](C)NC(=O)[C@H](C)NC(=O)CSC[C@H](C(=O)N2CCC(CC(N)=O)CC2)NC(=O)[C@H](Cc2ccccc2)N(C)C(=O)[C@H](CCC(=O)O)N(C)C1=O` [Myostatin_99_v315] ({CH2CO}-AAWY[NMeF]I[Sar][Phe(3-OCH2COOH)][Phe(4-COOH)]R[NMeF][X1][NMeE][NMeF][dC]-X9; thioether N-15), the IC50 in test [1] (Method B: GDF-11 1 ng/mL) amounted to 56.8 nM; in test [3] (Method B: Myostatin 1 ng/mL), 0.1 nM. In test [2] (Method B), this compound had a Selectivity of 541.6.

As for `CCCCCCC[C@@H]1NC(=O)[C@H](Cc2ccccc2)N(C)C(=O)[C@H](CCCNC(=N)N)NC(=O)[C@H](Cc2ccc(C(=O)O)cc2)NC(=O)[C@H](Cc2cccc(OCC(=O)O)c2)NC(=O)CN(C)C(=O)[C@H]([C@@H](C)CC)NC(=O)[C@H](Cc2ccccc2)N(C)C(=O)[C@H](Cc2ccc(O)cc2)NC(=O)[C@H](Cc2c[nH]c3ccccc23)NC(=O)[C@H](C)NC(=O)[C@H](C)NC(=O)CSC[C@H](C(=O)N2CCC(CCC(N)=O)CC2)NC(=O)[C@H](Cc2ccccc2)N(C)C(=O)[C@H](CCC(=O)O)N(C)C1=O` [Myostatin_99_v316] ({CH2CO}-AAWY[NMeF]I[Sar][Phe(3-OCH2COOH)][Phe(4-COOH)]R[NMeF][X1][NMeE][NMeF][dC]-{Piperidine(4-CH2CH2CONH2)}; thioether N-15), the IC50 in test [1] (Method B: GDF-11 1 ng/mL) is 89.7 nM; in test [3] (Method B: Myostatin 1 ng/mL), 0.37 nM. Also, in test [2] (Method B), the Selectivity is 239.8.

Consider `CCCCCCCCCC[C@@H]1NC(=O)[C@H](Cc2ccccc2)N(C)C(=O)[C@H](CCCNC(=N)N)NC(=O)[C@H](Cc2ccc(C(=O)O)cc2)NC(=O)[C@H](Cc2cccc(OCC(=O)O)c2)NC(=O)[C@H]2CCCN2C(=O)[C@H]([C@@H](C)CC)NC(=O)[C@H](Cc2ccccc2)N(C)C(=O)[C@H](Cc2ccc(O)cc2)NC(=O)[C@H](Cc2c[nH]c3ccccc23)NC(=O)[C@H](C)NC(=O)[C@H](C)NC(=O)CSC[C@H](C(=O)N2CCC(CC(=O)O)CC2)NC(=O)[C@H](Cc2ccccc2)N(C)C(=O)[C@H](CCC(=O)O)N(C)C1=O` [Myostatin_99_v335] ({CH2CO}-AAWY[NMeF]I[dP][Phe(3-OCH2COOH)][Phe(4-COOH)]R[NMeF][Gly(decyl)][NMeE][NMeF][dC]-{Piperidinyl(4-CH2COOH)}; thioether N-15), for which the IC50 in test [1] (Method B: GDF-11 1 ng/mL) came to 46.6 nM; in test [3] (Method B: Myostatin 1 ng/mL) it was 0.32 nM. The same compound gave a Selectivity in test [2] (Method B) of 145.0.

Consider `CCCCCCCCCC[C@@H]1NC(=O)[C@H](Cc2ccccc2)N(C)C(=O)[C@H](CCCNC(=N)N)NC(=O)[C@H](Cc2ccc(C(=O)O)cc2)NC(=O)[C@H](Cc2cccc(OCC(=O)O)c2)NC(=O)[C@H]2CCCN2C(=O)[C@H]([C@@H](C)CC)NC(=O)[C@H](Cc2ccccc2)N(C)C(=O)[C@H](Cc2ccc(O)cc2)NC(=O)[C@H](Cc2c[nH]c3cnccc23)NC(=O)[C@H](C)NC(=O)[C@H](C)NC(=O)CSC[C@H](C(=O)N2CCC(CC(=O)O)CC2)NC(=O)[C@H](Cc2ccccc2)N(C)C(=O)[C@H](CCC(=O)O)N(C)C1=O` [Myostatin_99_v338] ({CH2CO}-AA[Trp(6-aza)]Y[NMeF]I[dP][Phe(3-OCH2COOH)][Phe(4-COOH)]R[NMeF][Gly(decyl)][NMeE][NMeF][dC]-{Piperidinyl(4-CH2COOH)}; thioether N-15), for which the IC50 stood at 114 nM in test [1] (Method B: GDF-11 1 ng/mL) and 0.38 nM in test [3] (Method B: Myostatin 1 ng/mL). This compound also gave a Selectivity in test [2] (Method B) of 299.8.

On to `CCCCCCCCCC[C@@H]1NC(=O)[C@H](Cc2ccccc2)N(C)C(=O)[C@H](CCCNC(=N)N)NC(=O)[C@H](Cc2ccc(C(=O)O)cc2)NC(=O)[C@H](Cc2cccc(OCC(=O)O)c2)NC(=O)CN(CC)C(=O)[C@H]([C@@H](C)CC)NC(=O)[C@H](Cc2ccccc2)N(C)C(=O)[C@H](Cc2ccc(O)cc2)NC(=O)[C@H](Cc2c[nH]c3cnccc23)NC(=O)[C@H](C)NC(=O)[C@H](C)NC(=O)CSC[C@H](C(=O)N2CCC(CC(=O)O)CC2)NC(=O)[C@H](Cc2ccccc2)N(C)C(=O)[C@H](CCC(=O)O)N(C)C1=O` [Myostatin_99_v339] ({CH2CO}-AA[Trp(6-aza)]Y[NMeF]I[NEtG][Phe(3-OCH2COOH)][Phe(4-COOH)]R[NMeF][Gly(decyl)][NMeE][NMeF][dC]-{Piperidinyl(4-CH2COOH)}; thioether N-15), for which the half-maximal inhibitory concentration (IC50) in test [1] (Method B: GDF-11 1 ng/mL) is 128 nM; in test [3] (Method B: Myostatin 1 ng/mL), 0.89 nM. Besides, the Selectivity in test [2] (Method B) came out at 144.7.

Turning to `CCCCCCCCCC[C@@H]1NC(=O)[C@H](Cc2ccccc2)N(C)C(=O)[C@H](CCCNC(=N)N)NC(=O)[C@H](Cc2ccc(C(=O)O)cc2)NC(=O)[C@H](Cc2cccc(OCC(=O)O)c2)NC(=O)CN(C)C(=O)[C@H]([C@@H](C)OC)NC(=O)[C@H](Cc2ccccc2)N(C)C(=O)[C@H](Cc2ccc(O)cc2)NC(=O)[C@H](Cc2c[nH]c3cnccc23)NC(=O)[C@H](C)NC(=O)[C@H](C)NC(=O)CSC[C@H](C(=O)N2CCC(CC(=O)O)CC2)NC(=O)[C@H](Cc2ccccc2)N(C)C(=O)[C@H](CCC(=O)O)N(C)C1=O` [Myostatin_99_v341] ({CH2CO}-AA[Trp(6-aza)]Y[NMeF]T(Me)[Sar][Phe(3-OCH2COOH)][Phe(4-COOH)]R[NMeF][Gly(decyl)][NMeE][NMeF][dC]-{Piperidinyl(4-CH2COOH)}; thioether N-15), the figures for the IC50 in test [1] (Method B: GDF-11 1 ng/mL) and in test [3] (Method B: Myostatin 1 ng/mL) were 132 nM and 0.76 nM, respectively. The Selectivity in test [2] (Method B) was determined as 173.9.

`CCCCCCCCCC[C@@H]1NC(=O)[C@H](Cc2ccccc2)N(C)C(=O)[C@H](CCCNC(=N)N)NC(=O)[C@H](Cc2ccc(C(=O)O)cc2)NC(=O)[C@H](Cc2cccc(OCC(=O)O)c2)NC(=O)[C@H]2CCCN2C(=O)[C@H]([C@@H](C)CC)NC(=O)[C@H](Cc2ccccc2)N(C)C(=O)[C@H](Cc2ccc(O)cc2)NC(=O)[C@H](Cc2ccc(-c3ccc(S(C)(=O)=O)cc3)cc2)NC(=O)[C@H](C)NC(=O)[C@H](C)NC(=O)CSC[C@H](C(=O)N2CCN(CC(=O)O)CC2)NC(=O)[C@H](Cc2ccccc2)N(C)C(=O)[C@H](CCC(=O)O)N(C)C1=O` [Myostatin_99_v343] ({CH2CO}-AA[X6]Y[NMeF]I[dP][Phe(3-OCH2COOH)][Phe(4-COOH)]R[NMeF][Gly(decyl)][NMeE][NMeF][dC]-{Piperazinyl(4-CH2COOH)}; thioether N-15): the IC50 in test [1] (Method C: GDF-11 1 ng/mL) is 14.3 nM; in test [3] (Method C: Myostatin 1.5 ng/mL), 0.1 nM. In test [2] (Method C), the Selectivity turned out to be 137.1.

By IC50 is commonly meant the concentration that gives 50% inhibition.
